How the values were obtained:
human TLR8 = molecular target: T1, human TLR8 (Homo sapiens, UniProt Q9NR97); experiment: HEK reporter assay, HEK293 reporter cells expressing human TLR8; assay type: cell-based; details: for EC50: HEK293 NFKB reporter cells expressing human TLR8, read-out: HEK293 hTLR8 EC50; for TLR8 activity after NHBoc modification of the dipropylamide, versus parent compound: Human HEK293 reporter cells, BZA-2 vs BZA-1, BZA-4 vs BZA-3 (FIG. 1A, 1C)
T1 construct: host or cells: HEK293 NF-kB reporter cells
T1 sequence (Q9NR97 27-1041): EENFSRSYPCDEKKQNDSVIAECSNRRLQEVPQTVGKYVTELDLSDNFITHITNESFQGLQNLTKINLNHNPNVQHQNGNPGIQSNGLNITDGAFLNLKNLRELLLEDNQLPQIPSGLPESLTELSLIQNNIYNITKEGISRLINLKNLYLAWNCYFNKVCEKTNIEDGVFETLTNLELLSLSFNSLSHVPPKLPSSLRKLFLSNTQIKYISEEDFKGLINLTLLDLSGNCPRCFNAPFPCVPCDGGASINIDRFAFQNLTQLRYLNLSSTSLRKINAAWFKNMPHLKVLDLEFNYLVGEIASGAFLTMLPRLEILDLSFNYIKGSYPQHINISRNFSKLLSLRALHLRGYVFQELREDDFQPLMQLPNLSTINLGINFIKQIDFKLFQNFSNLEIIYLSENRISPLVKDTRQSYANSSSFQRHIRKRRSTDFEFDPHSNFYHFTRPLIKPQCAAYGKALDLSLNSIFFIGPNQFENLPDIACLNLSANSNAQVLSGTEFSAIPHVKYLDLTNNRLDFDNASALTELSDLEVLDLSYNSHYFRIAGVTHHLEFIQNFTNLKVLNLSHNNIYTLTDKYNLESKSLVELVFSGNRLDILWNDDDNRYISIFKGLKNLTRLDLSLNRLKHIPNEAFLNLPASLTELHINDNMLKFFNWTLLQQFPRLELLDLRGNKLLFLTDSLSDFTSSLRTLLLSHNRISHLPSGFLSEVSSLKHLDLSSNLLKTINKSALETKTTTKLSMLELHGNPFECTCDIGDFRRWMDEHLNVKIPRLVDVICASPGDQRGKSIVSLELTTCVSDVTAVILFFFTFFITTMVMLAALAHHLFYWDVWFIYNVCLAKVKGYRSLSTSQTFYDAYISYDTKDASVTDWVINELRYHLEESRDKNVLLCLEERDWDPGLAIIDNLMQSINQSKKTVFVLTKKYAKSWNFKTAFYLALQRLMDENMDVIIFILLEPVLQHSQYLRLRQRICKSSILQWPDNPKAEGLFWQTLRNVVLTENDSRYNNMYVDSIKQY
Method: Activity against HEK293 NFKB reporter cells expressing human TLR7 or human TLR8 was measured according to Example 30.
(§1) HEK293 reporter cells expressing human TLR7 or human TLR8 were purchased from Invivogen and vendor protocols were followed for cellular propagation and experimentation. Briefly, cells were grown to 80-85% confluence at 5% CO2 in DMEM supplemented with 10% FBS, Zeocin, and Blasticidin. Cells were then seeded in 96-well flat plates at 4×10^4 cells/well with substrate containing HEK detection medium and immunostimulatory molecules. Activity was measured using a plate reader at 620-655 nm wavelength.

human TLR7 = molecular target: T2, human TLR7 (Homo sapiens, UniProt Q9NYK1); experiment: HEK reporter assay, HEK293 reporter cells expressing human TLR7; assay type: cell-based; details: for EC50: HEK293 NFKB reporter cells expressing human TLR7, read-out: HEK293 hTLR7 EC50; for TLR7 activity after NHBoc modification of the dipropylamide, versus parent compound: Human HEK293 reporter cells, BZA-2 vs BZA-1, BZA-4 vs BZA-3 (FIG. 1B, 1D)
T2 construct: host or cells: HEK293 NF-kB reporter cells
T2 sequence (Q9NYK1 27-1049): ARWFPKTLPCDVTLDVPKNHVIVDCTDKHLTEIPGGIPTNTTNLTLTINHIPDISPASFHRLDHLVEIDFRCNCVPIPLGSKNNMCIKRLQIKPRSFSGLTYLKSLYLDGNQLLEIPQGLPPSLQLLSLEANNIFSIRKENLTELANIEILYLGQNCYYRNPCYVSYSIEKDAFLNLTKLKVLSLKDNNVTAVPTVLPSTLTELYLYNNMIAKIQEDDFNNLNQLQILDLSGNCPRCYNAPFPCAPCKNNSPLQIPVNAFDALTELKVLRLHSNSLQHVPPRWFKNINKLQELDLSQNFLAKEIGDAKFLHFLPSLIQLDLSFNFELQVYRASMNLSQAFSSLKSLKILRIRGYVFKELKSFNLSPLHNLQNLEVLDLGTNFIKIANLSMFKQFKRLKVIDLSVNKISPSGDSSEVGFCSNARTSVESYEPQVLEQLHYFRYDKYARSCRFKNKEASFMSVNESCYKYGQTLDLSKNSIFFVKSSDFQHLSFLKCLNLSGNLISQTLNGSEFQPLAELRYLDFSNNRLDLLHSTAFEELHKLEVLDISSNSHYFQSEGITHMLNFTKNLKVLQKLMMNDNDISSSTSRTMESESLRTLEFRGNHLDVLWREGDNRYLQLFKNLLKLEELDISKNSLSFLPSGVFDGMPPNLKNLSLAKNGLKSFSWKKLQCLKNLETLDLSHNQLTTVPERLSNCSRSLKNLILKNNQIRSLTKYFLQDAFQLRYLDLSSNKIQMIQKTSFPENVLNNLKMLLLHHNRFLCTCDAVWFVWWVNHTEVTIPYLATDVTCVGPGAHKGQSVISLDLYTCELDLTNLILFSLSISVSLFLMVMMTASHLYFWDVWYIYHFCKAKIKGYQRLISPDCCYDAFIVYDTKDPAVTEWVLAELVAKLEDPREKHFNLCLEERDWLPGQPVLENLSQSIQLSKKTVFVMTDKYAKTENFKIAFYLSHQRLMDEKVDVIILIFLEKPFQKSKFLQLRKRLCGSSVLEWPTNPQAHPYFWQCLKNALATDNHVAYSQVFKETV
Method: Each compound was characterized by mass spectrometry and shown to have the mass indicated. Activity against HEK293 NFKB reporter cells expressing human TLR7 or human TLR8 was measured according to Example 30.
as §1

Structure (SMILES)	EC50 (human TLR8) [µM]	EC50 (human TLR7) [µM]	TLR8 activity after NHBoc modification of the dipropylamide, versus parent compound (human TLR8)	TLR7 activity after NHBoc modification of the dipropylamide, versus parent compound (human TLR7)
CCCN(CCCNC(=O)OC(C)(C)C)C(=O)C1=Cc2ccc(C(=O)Nc3cnc(NCCNC(=O)OC(C)(C)C)nc3)cc2N=C(N)C1 [8AmBza-7, tert-butyl N-[3-[[2-amino-8-[[2-[2-(tert-butoxycarbonylamino)ethylamino]pyrimidin-5-yl]carbamoyl]-3H-1-benzazepine-4-carbonyl]-propyl-amino]propyl]carbamate]	1.76	> 9	–	–
CCCN(CCCNC(=O)OC(C)(C)C)C(=O)C1=Cc2ccc(C(=O)Nc3cccc(COCCOCCNC(=O)OC(C)(C)C)c3)cc2N=C(N)C1 [8AmBza-8, tert-butyl N-[3-[[2-amino-8-[[3-[2-[2-(tert-butoxycarbonylamino)ethoxy]ethoxymethyl]phenyl]carbamoyl]-3H-1-benzazepine-4-carbonyl]-propyl-amino]propyl]carbamate]	0.862	> 9	–	–
CCCN(CCCNC(=O)OC(C)(C)C)C(=O)C1=Cc2ccc(C(=O)Nc3ccccc3)cc2N=C(N)C1 [8AmBza-9, tert-butyl (3-(2-amino-8-(phenylcarbamoyl)-N-propyl-3H-benzo [b]azepine-4-carboxamido)propyl)carbamate]	0.127	> 9	–	–
CCCN(CCC(F)(F)F)C(=O)C1=Cc2ccc(C(=O)Nc3ccccc3)cc2N=C(N)C1 [8AmBza-14]	0.245	> 9	–	–
CCCN(OCC)C(=O)C1=Cc2ccc(C(=O)Nc3ccccc3)cc2N=C(N)C1 [8AmBza-15]	0.034	4.86	–	–
CCCN(Cc1ccc(CN)cc1)C(=O)C1=Cc2ccc(C(=O)Nc3ccccc3)cc2N=C(N)C1 [8AmBza-16]	0.077	> 9	–	–
CCCN(Cc1ccc(CNC(=O)OC(C)(C)C)cc1)C(=O)C1=Cc2ccc(C(=O)Nc3ccccc3)cc2N=C(N)C1 [8AmBza-17]	0.782	> 9	–	–
CCCN(OCC)C(=O)C1=Cc2ccc(C(=O)Nc3ccc(N4CCC(C(=O)NCCN)CC4)nc3)cc2N=C(N)C1 [8AmBza-18, 2-amino-N8-[6-[4-(2-aminoethylcarbamoyl)-1-piperidyl]-3-pyridyl]-N4-ethoxy-N4-propyl-3H-1-benzazepine-4,8-dicarboxamide]	5.62	> 9	–	–
CCCN(CCC)C(=O)C1=Cc2ccc(C(=O)Nc3cnc4c(c3)CNCC4)cc2N=C(N)C1 [8AmBza-19]	2.18	–	–	–
CCCN(CCC)C(=O)C1=Cc2ccc(C(=O)Nc3cnc4c(c3)CN(C(=O)OC(C)(C)C)CC4)cc2N=C(NC(=O)OC(C)(C)C)C1 [8AmBza-20]	6.08	8.13	–	–
CCCN(CCC)C(=O)C1=Cc2ccc(C(=O)Nc3cncc(CNC(=O)CN)c3)cc2N=C(N)C1 [8AmBza-21]	–	> 9	–	–
CCCN(CCC)C(=O)C1=Cc2ccc(C(=O)Nc3cncc(CNC(=O)CNC(=O)OC(C)(C)C)c3)cc2N=C(NC(=O)OC(C)(C)C)C1 [8AmBza-22]	> 9	> 9	–	–
CCCN(CCCNC(=O)OC(C)(C)C)C(=O)C1=Cc2ccc(-c3cccc(S(=O)(=O)N4CC(CO)C4)c3)cc2N=C(N)C1 [BZA-2, tert-butyl (3-(2-amino-8-(3-((3-(hydroxymethyl)azetidin-1-yl)sulfonyl)phenyl)-N-propyl-3H-benzo[b]azepine-4-carboxamido)propyl)carbamate, reference compound]	–	–	minimally perturbs TLR8 activity	significantly increasing TLR7 activity
CCCN(CCCNC(=O)OC(C)(C)C)C(=O)C1=Cc2ccc(NC(=O)c3ccccc3)cc2N=C(N)C1 [BZA-4, tert-butyl (3-(2-amino-8-benzamido-N-propyl-3H-benzo[b]azepine-4-carboxamido)propyl)carbamate, reference compound]	–	–	does not affect TLR 8 activity	increases TLR 7 activity

From patent US20220347310A1, “AMIDE-LINKED, AMINOBENZAZEPINE IMMUNOCONJUGATES, AND USES THEREOF” (BOLT BIOTHERAPEUTICS, INC., priority 2019, published 2022)
